Reference: patent US10968222B2, “2-azabicyclo hexane JAK inhibitor compound” (THERAVANCE BIOPHARMA R&D IP, LLC, priority 2018, dated 2021)

Key:
[1] = test system: IL-2/anti-CD3 stimulated STAT5 phosphorylation in CD4+ T cells in human PBMCs; assay: Inhibition of IL-2 stimulated pSTAT5 in CD4+ T cells; assay type: cell-based; conditions: 0.5 h, 30 min stimulation, flow cytometry, read-out: pIC50, inhibition of IL-2 stimulated pSTAT5 in CD4+ T cells (converted)
Method: The potency of the test compound for inhibition of interleukin-2 (IL-2)/anti-CD3 stimulated STAT5 phosphorylation was measured in CD4-positive (CD4+) T cells in human peripheral blood mononuclear cells (PBMCs) isolated from human whole blood (Stanford Blood Center) using flow cytometry. Because IL-2 signals through JAK, this assay provides a measure of JAK cellular potency.
CD4+ T cells were identified using a […] (PE) conjugated anti-CD4 antibody (Clone RPA-T4, BD Biosciences), while an Alexa Fluor 647 conjugated anti-pSTAT5 antibody (pY694, Clone 47, BD Biosciences) was used to detect STAT5 phosphorylation. […]
(2) After cytokine stimulation, cells were fixed with pre warmed fix solution (200 μL; BD Biosciences) for 10 min at 37° C., 5% CO2, washed twice with DPBS buffer (1 mL, Life Technologies), and resuspended in ice cold Perm Buffer III (1000 μL, BD Biosciences) for 30 min at 4° C. […] After incubation, cells were washed twice in FACS buffer before being analyzed using a LSRII flow cytometer (BD Biosciences). To determine the inhibitory potency of the test compound in response to IL-2/anti-CD3, the median fluorescent intensity (MFI) of pSTAT5 was measured in CD4+ T cells. IC50 values were determined from analysis of the inhibition curves of MFI vs compound concentration.
Data are expressed as pIC50 (negative decadic logarithm IC50) values.

[2] = test system: IL-6 stimulated CCL2 (MCP-1) production in human PBMCs; assay: Inhibition of IL-6 stimulated CCL2 (MCP-1) in human PBMCs; assay type: cell-based; conditions: PBMC, 48 h stimulation, ELISA, read-out: pIC50, inhibition of IL-6 stimulated CCL2 (MCP-1) (converted)
Method: The potency of the test compound for inhibition of interleukin-6 (IL-6) stimulated CCL2 (MCP-1) production was measured in human peripheral blood mononuclear cells (PBMCs) isolated from human whole blood (Stanford Blood Center). Because IL-6 signals through JAK, this assay provides a distal measure of JAK cellular potency.
(1) The protocol of Assay 4 paragraph (1) was followed up to the incubation with test compounds. In the present assay, after test compounds were added to wells and incubated, IL-6 (R&D Systems; final concentration 10 ng/ml) in pre-warmed assay media (50 μL) was added.
(2) After cytokine stimulation for 48 h, cells were centrifuged at 500 g for 5 min and supernatants were removed and frozen at −80° C. To determine the inhibitory potency of the test compound in response to IL-6, supernatant CCL2 (MCP-1) concentrations were measured via ELISA (R&D Systems). IC50 values were determined from analysis of the inhibition curves of concentration of CCL2/MCP-1 vs compound concentration. Data are expressed as pIC50 (negative decadic logarithm IC50) values.

[3] = test system: IL-6 induced pSTAT3 in rat retina/choroid; assay: Pharmacodynamic assay: inhibition of IL6-induced pSTAT3 in rats; assay type: in vivo; conditions: rat retina/choroid homogenates; 45 μg intravitreal dose; one hour after injection
Method: The ability of a single intravitreal administration of test compound to inhibit IL-6 induced pSTAT3 was measured in rat retina/choroid homogenates.
A solution formulation was prepared by dissolving compound 1 in 1% HPMC E5+15% HPβCD, pH7 to attain a target concentration of […]. Female Lewis rats were intravitreally (IVT) dosed (5 μL per eye) with either the vehicle, vehicle plus rat IL-6 (Peprotech; 0.5 μg), or a combination of IL-6 plus compound (0.5 μg IL-6 and 45 μg compound 1). Ocular tissues were dissected one hour after the IVT injection. The retina/choroid tissues were homogenized and pSTAT3 levels were measured using an AlphaLisa (PerkinElmer). The percent inhibition of IL-6-induced pSTAT3 was calculated in comparison to the vehicle and IL-6 groups.

PLK4 = target: T1, PLK4 (Homo sapiens, UniProt O00444); assay: Kinome screen, PLK4; assay type: binding; conditions: screened at 1 μM
T1 construct: made in house; host or cells: E. coli BL21-derived host (T7 phage) or HEK-293 cells
T1 sequence (O00444 whole entry): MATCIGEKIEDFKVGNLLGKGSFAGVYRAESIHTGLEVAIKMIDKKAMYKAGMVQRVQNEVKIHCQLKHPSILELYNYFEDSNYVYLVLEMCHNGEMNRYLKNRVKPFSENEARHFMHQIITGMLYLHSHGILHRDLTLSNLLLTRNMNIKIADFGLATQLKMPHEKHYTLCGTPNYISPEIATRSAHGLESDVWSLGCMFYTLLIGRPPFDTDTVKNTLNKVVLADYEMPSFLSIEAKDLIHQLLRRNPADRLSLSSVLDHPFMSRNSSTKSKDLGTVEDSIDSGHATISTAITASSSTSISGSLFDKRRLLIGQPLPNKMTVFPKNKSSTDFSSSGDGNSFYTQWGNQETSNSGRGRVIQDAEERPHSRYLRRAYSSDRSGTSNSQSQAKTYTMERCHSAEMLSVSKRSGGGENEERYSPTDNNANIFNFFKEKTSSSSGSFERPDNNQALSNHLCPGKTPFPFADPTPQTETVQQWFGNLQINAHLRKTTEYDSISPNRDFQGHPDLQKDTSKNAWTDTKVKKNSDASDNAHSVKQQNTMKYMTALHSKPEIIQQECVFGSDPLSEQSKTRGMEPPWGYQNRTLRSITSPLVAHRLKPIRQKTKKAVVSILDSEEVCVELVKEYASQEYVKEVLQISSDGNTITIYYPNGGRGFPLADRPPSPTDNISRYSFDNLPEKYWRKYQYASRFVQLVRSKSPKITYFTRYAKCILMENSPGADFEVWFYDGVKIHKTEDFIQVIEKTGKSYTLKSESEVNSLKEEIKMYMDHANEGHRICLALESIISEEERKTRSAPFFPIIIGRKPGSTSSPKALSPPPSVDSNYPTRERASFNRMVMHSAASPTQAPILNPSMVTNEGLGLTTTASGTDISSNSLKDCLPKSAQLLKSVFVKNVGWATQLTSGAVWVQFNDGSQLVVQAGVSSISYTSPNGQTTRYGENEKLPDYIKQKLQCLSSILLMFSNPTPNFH
Method: Compounds 1 and C-1 were screened against other kinases to evaluate their selectivity profile.
Kinase-tagged T7 phage strains were grown in parallel in 24-well blocks in an E. coli host derived from the BL21 strain. E. coli were grown to log-phase and infected with T7 phage from a frozen stock (multiplicity of infection=0.4) and incubated with shaking at 32° C. until lysis (90-150 minutes). The lysates were centrifuged (6,000×g) and filtered (0.2 μm) to remove cell debris. The remaining kinases were produced in HEK-293 cells and subsequently tagged with DNA for qPCR detection.
Streptavidin-coated magnetic beads were treated with biotinylated small molecule ligands for 30 minutes at room temperature to generate affinity resins for kinase assays. The liganded beads were blocked with excess biotin and washed with blocking buffer (SeaBlock (Pierce), 1% BSA, 0.05% Tween 20, 1 mM DTT) to remove unbound ligand and to reduce non-specific phage binding. Binding reactions were assembled by combining kinases, liganded affinity beads, and test compounds in 1× binding buffer (20% SeaBlock, 0.17×PBS, 0.05% Tween 20, 6 mM DTT). Test compounds were prepared as 40× stocks in 100% DMSO and directly diluted into the assay. All reactions were performed in polypropylene 384-well plates in a final volume of 0.04 ml. […] The kinase concentration in the eluates was measured by qPCR. […]

## CCc1cc(O)c(F)cc1-c1cc(F)c2c(-c3nc4c([nH]3)CCN(C(=O)[C@]35C[C@H]3CCN5)C4)n[nH]c2c1 [Compound 1, (1S,5R)-2-azabicyclo[3.1.0]hexan-1-yl(2-(6-(2-ethyl-5-fluoro-4-hydroxyphenyl)-4-fluoro-1H-indazol-3-yl)-6,7-dihydro-3H-imidazo[4,5-c]pyridin-5(4H)-yl)methanone]
[1]
  IC50: 20 nM
[2]
  IC50: 316 nM
[3]
  inhibition of IL-6-induced pSTAT3: 84%
PLK4
  inhibition at 1 µM: 39%
